Data published in ChEMBL document CHEMBL5532643, “Design and synthesis of etrasimod derivatives as potent antibacterial agents against Gram-positive bacteria” (Eur J Med Chem, 2024).
In brackets after ≈: the same amount, converted by molar mass. Several values for one entry are separate records, joined by “and”; a condition that tells them apart may be missing. Identical values can stand only once.

Tests used:
Format in all cases: functional
Staphylococcus aureus [1] = test: Antibacterial activity against Staphylococcus aureus ATCC 25923 assessed as reduction in bacterial growth incubated for 18 to 20 hrs by broth microdilution assay; settings: time 18-20 hrs
Staphylococcus aureus [2] = test: Antibacterial activity against Staphylococcus aureus ATCC 25923 assessed as inhibition of bacterial growth at 40 uM incubated for 18 to 24 hrs by broth microdilution assay relative to control; settings: time 18-24 hrs
Staphylococcus aureus [3] = test: Antibiofilm activity against Staphylococcus aureus ATCC 25923 assessed as inhibition of biofilm viability at 100 uM incubated for 18 to 20 hrs by resazurin staining based assay; settings: time 18-20 hrs
Staphylococcus aureus [4] = test: Antibiofilm activity against Staphylococcus aureus ATCC 25923 assessed as inhibition of biofilm biomass at 100 uM incubated for 18 to 20 hrs by crystal violet staining based assay; settings: time 18-20 hrs
Staphylococcus aureus [5] = test: Antibacterial activity against Staphylococcus aureus ATCC 43300 assessed as reduction in bacterial growth incubated for 18 to 20 hrs by broth microdilution assay; settings: time 18-20 hrs
Staphylococcus aureus [6] = test: Antibacterial activity against […] Staphylococcus aureus ATCC 43300 assessed as reduction in bacterial growth incubated for 18 to 20 hrs by broth microdilution assay; settings: time 18-20 hrs
[7] = system: Staphylococcus epidermidis; test: Antibacterial activity against Staphylococcus epidermidis RP62A assessed as reduction in bacterial growth incubated for 18 to 20 hrs by broth microdilution assay; settings: time 18-20 hrs
[8] = system: Staphylococcus epidermidis; test: Antibacterial activity against […] Staphylococcus epidermidis RP62A assessed as reduction in bacterial growth incubated for 18 to 20 hrs by broth microdilution assay; settings: time 18-20 hrs
Enterococcus faecalis [9] = test: Antibacterial activity against Enterococcus faecalis ATCC 29212 assessed as reduction in bacterial growth incubated for 18 to 20 hrs by broth microdilution assay; settings: time 18-20 hrs
Enterococcus faecalis [10] = test: Antibacterial activity against vancomycin-resistant Enterococcus faecalis ATCC 51575 assessed as reduction in bacterial growth incubated for 18 to 20 hrs by broth microdilution assay; settings: time 18-20 hrs
Enterococcus faecium = test: Antibacterial activity against vancomycin-resistant Enterococcus faecium ATCC 700221 assessed as reduction in bacterial growth incubated for 18 to 20 hrs by broth microdilution assay; settings: time 18-20 hrs
Pseudomonas aeruginosa = test: Antibacterial activity against Pseudomonas aeruginosa ATCC 15442 assessed as reduction in bacterial growth incubated for 18 to 20 hrs by broth microdilution assay; settings: time 18-20 hrs
Acinetobacter baumannii = test: Antibacterial activity against Acinetobacter baumannii NCTC 13423 assessed as reduction in bacterial growth incubated for 18 to 20 hrs by broth microdilution assay; settings: time 18-20 hrs

SMILES	MIC (Staphylococcus aureus [1])	inhibition at 40 µM (Staphylococcus aureus [2]) [%]	inhibition at 100 µM (Staphylococcus aureus [3]) [%]	inhibition at 100 µM (Staphylococcus aureus [4]) [%]	MIC (Staphylococcus aureus [5]) [µM]	MIC (Staphylococcus aureus [6]) [µM]	MIC [7] [µM]	MIC [8] [µM]	MIC (Enterococcus faecalis [9]) [µM]	MIC (Enterococcus faecalis [10]) [µM]	MIC (Enterococcus faecium) [µM]	MIC (Pseudomonas aeruginosa) [µM]	MIC (Acinetobacter baumannii) [µM]
O=C(O)CC1CCc2c1[nH]c1ccc(OCc3ccc(C4CCCCC4)c(OC(F)(F)F)c3)cc21 (stereo not drawn)	5 µM and 2.4 µg/mL	≤ 90	> 90	> 90	5 (≈ 2.44 µg/mL)	5 (≈ 2.44 µg/mL)	10 (≈ 4.88 µg/mL)	10 (≈ 4.88 µg/mL)	5 (≈ 2.44 µg/mL)	5 (≈ 2.44 µg/mL)	5 (≈ 2.44 µg/mL)	> 200	> 200
CC(=O)NC[C@H]1CN(c2ccc(N3CCOCC3)c(F)c2)C(=O)O1 [LINEZOLID]									5 (≈ 1.69 µg/mL)	5 (≈ 1.69 µg/mL)	5 (≈ 1.69 µg/mL)		
O=C(O)CCc1c[nH]c2ccc(OCc3ccc(C4CCCC4)c(C(F)(F)F)c3)cc12	20 µM and 8.6 µg/mL	≤ 90	> 90	> 90									
O=C(O)Cn1ccc2cc(OCc3ccc(C4CCCC4)c(C(F)(F)F)c3)ccc21	20 µM and 8.3 µg/mL	≤ 90	> 90	> 90									
CCOC(=O)CC1CCc2c1[nH]c1ccc(OCc3ccc(C4CCCC4)c(C(F)(F)F)c3)cc21 (stereo not drawn)	> 40 µM and > 19.4 µg/mL	≤ 90	> 90	> 90									
CS(=O)(=O)NC(=O)CC1CCc2c1[nH]c1ccc(OCc3ccc(C4CCCC4)c(C(F)(F)F)c3)cc21 (stereo not drawn)	5 µM and 2.7 µg/mL	≤ 90	> 90	> 90	5 (≈ 2.67 µg/mL)	5 (≈ 2.67 µg/mL)	10 (≈ 5.35 µg/mL)	10 (≈ 5.35 µg/mL)	5 (≈ 2.67 µg/mL)	5 (≈ 2.67 µg/mL)	10 (≈ 5.35 µg/mL)	> 200	> 200
O=C(O)Cc1c[nH]c2ccc(OCc3ccc(C4CCCC4)c(C(F)(F)F)c3)cc12	20 µM and 8.3 µg/mL	≤ 90	> 90	> 90									
NC(=O)CC1CCc2c1[nH]c1ccc(OCc3ccc(C4CCCC4)c(C(F)(F)F)c3)cc21 (stereo not drawn)	20 µM and 9.1 µg/mL	≤ 90	> 90	> 90									
FC(F)(F)c1cc(COc2ccc3[nH]ccc3c2)ccc1C1CCCC1	> 40 µM and > 14.4 µg/mL	≤ 90	> 90	> 90									
O=C(O)CC1CCc2c1[nH]c1ccc(OCc3ccc(C4CCCCC4)c(C(F)(F)F)c3)cc21 (stereo not drawn)	5 µM and 2.4 µg/mL	≤ 90	> 90	> 90									
O=C(O)CC1CCc2c1[nH]c1ccc(OCc3ccc(C4CCCC4)cc3)cc21 (stereo not drawn)	20 µM and 7.8 µg/mL	≤ 90	> 90	> 90									
CCCCc1ccc(COc2ccc3[nH]c4c(c3c2)CCC4CC(=O)O)cc1C(F)(F)F (stereo not drawn)	10 µM and 4.5 µg/mL	≤ 90	> 90	> 90									
Cc1nc(-c2ccc(C(F)(F)F)cc2)sc1COc1ccc2[nH]c3c(c2c1)CCC3CC(=O)O (stereo not drawn)	20 µM and 9.7 µg/mL	≤ 90	> 90	> 90									
O=C(O)CC1CCc2c1[nH]c1ccc(OCc3ccc(C4CCCC4)c(C(F)(F)F)c3)cc21 (racemic)	5 µM and 2.3 µg/mL	≤ 90	> 90	> 90									
CC(C)Cc1ccc(COc2ccc3[nH]c4c(c3c2)CCC4CC(=O)O)cc1C(F)(F)F (stereo not drawn)	10 µM and 4.5 µg/mL	≤ 90	> 90	> 90									
O=C(O)CC1CCc2c1[nH]c1ccc(OCc3ccc(C4CCCC4)c(OC(F)(F)F)c3)cc21 (stereo not drawn)	5 µM and 2.4 µg/mL	≤ 90	> 90	> 90									
O=C(O)CC1CCc2c1[nH]c1ccc(OCc3ccc(-c4ccc(Cl)s4)c(C(F)(F)F)c3)cc21 (stereo not drawn)	5 µM and 2.5 µg/mL	≤ 90	> 90	> 90									
O=C(O)CC1CCc2c1[nH]c1ccc(OCc3ccc(-c4cccs4)c(C(F)(F)F)c3)cc21 (stereo not drawn)	10 µM and 4.7 µg/mL	≤ 90	> 90	> 90									
O=C(O)c1cc2cc(OCc3ccc(C4CCCC4)c(C(F)(F)F)c3)ccc2[nH]1	5 µM and 2 µg/mL	≤ 90	> 90	> 90	5 (≈ 2.02 µg/mL)	5 (≈ 2.02 µg/mL)	5 (≈ 2.02 µg/mL)	2.5 (≈ 1.01 µg/mL)	10 (≈ 4.03 µg/mL)	10 (≈ 4.03 µg/mL)	10 (≈ 4.03 µg/mL)	> 200	> 200
O=C(O)CC1CCc2c1[nH]c1ccc(OCc3ccc(N4CCOCC4)c(C(F)(F)F)c3)cc21 (stereo not drawn)	> 40 µM and > 19 µg/mL	≤ 90	> 90	> 90									
O=C(O)CC1CCc2c1[nH]c1ccc(OCc3ccc(C4CCCC4)c(F)c3)cc21 (stereo not drawn)	10 µM and 4.1 µg/mL	≤ 90	> 90	> 90									
O=C(O)CC1CCc2c1[nH]c1ccc(OCc3ccc(OCC4CCCC4)c(C(F)(F)F)c3)cc21 (stereo not drawn)	10 µM and 4.9 µg/mL	≤ 90	> 90	> 90									
N#Cc1cc(COc2ccc3[nH]c4c(c3c2)CCC4CC(=O)O)ccc1C1CCCC1 (stereo not drawn)	40 µM and 16.6 µg/mL	≤ 90	> 90	> 90									
O=C(O)CC1CCc2c1[nH]c1ccc(OCc3cccc(C(F)(F)F)c3)cc21 (stereo not drawn)	> 40 µM and > 15.6 µg/mL	≤ 90	> 90	> 90									
CCCCCCCCOc1ccc2[nH]c3c(c2c1)CCC3CC(=O)O (stereo not drawn)	40 µM and 13.7 µg/mL	≤ 90	> 90	> 90									
Cc1[nH]c2ccc(OCc3ccc(C4CCCC4)c(C(F)(F)F)c3)cc2c1CC(=O)O	20 µM and 8.6 µg/mL	≤ 90	> 90	> 90									
O=C(O)CC1CCc2c1[nH]c1ccc(OCc3noc(-c4ccc(C(F)(F)F)cc4)n3)cc21 (stereo not drawn)	> 40 µM and > 18.3 µg/mL	≤ 90	> 90	> 90									
O=C(O)Cc1ccc(OCc2ccc(C3CCCC3)c(C(F)(F)F)c2)cn1	> 40 µM and > 15.2 µg/mL	≤ 90	> 90	> 90									
